What was measured:
ELIC D113A/D158A = target: T1, ELIC D113A/D158A (Dickeya chrysanthemi, UniProt P0C7B7, D113A/D158A/INS163G); test: cell-based; assay type: cell-based, Erwinia chrysanthemi; conditions: 113A/158A, agonist cysteamine
T1 construct: expressed in transfected cells; host or cells: X. laevis oocytes
Experimental: (§1) Constructs containing the gene of either the WT or mutant channels preceded by the signal sequence of the chicken α7nAchR were cloned into the pTLN vector for expression in X. laevis oocytes. After linearization of the plasmid DNA by MluI, capped complementary RNA was transcribed with the mMessage mMachine kit (Ambion) and purified with the RNeasy kit (Qiagen). For expression, 1–50 ng of RNA was injected into defolliculated oocytes. Two-electrode voltage clamp measurements were performed 1 d after injection at 20°C (OC-725B, Warner Instrument Corp.). Currents were recorded in bath solutions containing 10 mM HEPES (pH 7), 130 mM NaCl, and the indicated concentrations of cysteamine and divalent cations. In case of solutions containing Zn^2+, cysteamine was replaced by propylamine. The membrane potential in all dose–response measurements was set to −40 mV. As ELIC is permeable to divalent cations, we tested if endogenous calcium-activated chloride channels affected our measurements. To chelate intracellular calcium ions, the oocytes were incubated for 15 to 30 min in bath solutions lacking divalent ions but containing 10 µM BAPTA-AM.

ELIC WT = target: T2, ELIC WT (Dickeya chrysanthemi, UniProt P0C7B7); test: cell-based; assay type: cell-based, Erwinia chrysanthemi; conditions: agonist cysteamine
T2 construct: expressed in transfected cells; host or cells: X. laevis oocytes (cRNA injection, pTLN vector)
Experimental: as §1

ELIC R91A = target: T3, ELIC R91A (Dickeya chrysanthemi, UniProt P0C7B7, INS163G/R91A); test: Two-electrode voltage clamp, ELIC R91A in oocytes; assay type: cell-based, Erwinia chrysanthemi; conditions: R91A, agonist cysteamine
T3 construct: expressed in transfected cells; host or cells: X. laevis oocytes
Experimental: as §1

ELIC D86A = target: T4, ELIC D86A (Dickeya chrysanthemi, UniProt P0C7B7, D86A/INS163G); test: Two-electrode voltage clamp, ELIC D86A in oocytes; assay type: cell-based, Erwinia chrysanthemi; conditions: agonist cysteamine
T4 construct: expressed in transfected cells; host or cells: X. laevis oocytes
Experimental: as §1

ELIC S84A [1] = target: T5, ELIC S84A (Dickeya chrysanthemi, UniProt P0C7B7, INS163G/S84A); test: Two-electrode voltage clamp, ELIC S84A in oocytes; assay type: cell-based, Erwinia chrysanthemi; conditions: S84A, agonist cysteamine
T5 construct: expressed in transfected cells; host or cells: X. laevis oocytes
Experimental: as §1

ELIC S84A [2] = test: Two-electrode voltage clamp, ELIC S84A in oocytes; assay type: cell-based, Erwinia chrysanthemi; conditions: S84A as printed in the N251A line (r30); Ca^2+ 10 mM; agonist cysteamine
Experimental: as §1

ELIC N251A = target: T6, ELIC N251A (Dickeya chrysanthemi, UniProt P0C7B7, N250A); test: Two-electrode voltage clamp, ELIC N251A in oocytes; assay type: cell-based, Erwinia chrysanthemi; conditions: agonist cysteamine
T6 construct: expressed in transfected cells; host or cells: X. laevis oocytes
Experimental: as §1

ELIC D113A = target: T7, ELIC D113A (Dickeya chrysanthemi, UniProt P0C7B7, D113A/INS163G); test: Two-electrode voltage clamp, ELIC D113A in oocytes; assay type: cell-based, Erwinia chrysanthemi; conditions: agonist cysteamine
T7 construct: expressed in transfected cells; host or cells: X. laevis oocytes
Experimental: as §1

ELIC D158A = target: T8, ELIC D158A (Dickeya chrysanthemi, UniProt P0C7B7, D158A/INS163G); test: Two-electrode voltage clamp, ELIC D158A in oocytes; assay type: cell-based, Erwinia chrysanthemi; conditions: agonist cysteamine
T8 construct: expressed in transfected cells; host or cells: X. laevis oocytes
Experimental: as §1

ELIC D158N = target: T9, ELIC D158N (Dickeya chrysanthemi, UniProt P0C7B7, D158N/INS163G); test: Two-electrode voltage clamp, ELIC D158N in oocytes; assay type: cell-based, Erwinia chrysanthemi; conditions: agonist cysteamine
T9 construct: expressed in transfected cells; host or cells: X. laevis oocytes
Experimental: as §1

ELIC E150Q = target: T10, ELIC E150Q (Dickeya chrysanthemi, UniProt P0C7B7, E150Q/INS163G); test: Two-electrode voltage clamp, ELIC E150Q in oocytes; assay type: cell-based, Erwinia chrysanthemi; conditions: agonist cysteamine
T10 construct: expressed in transfected cells; host or cells: X. laevis oocytes
Experimental: as §1

ELIC = target: T11, ELIC (Dickeya chrysanthemi, UniProt P0C7B7, INS163G); conditions: single channel data; ref Marabelli et al., in preparation; cited from earlier work
T11 construct: expressed in transfected cells; host or cells: HEK 293 cells (ATCC CRL-1573), pcDNA3

NCCS [cysteamine]
EC50 (ELIC D113A/D158A; Ba^2+ 1 mM): 3070 µM
EC50 (ELIC D113A/D158A; Ba^2+ 5 mM): 3070 µM
EC50 (ELIC D113A/D158A; Ba^2+ 10 mM): 5420 µM
EC50 (ELIC D113A/D158A; Ca^2+ 0 mM): 2330 µM
EC50 (ELIC D113A/D158A; Ca^2+ 1 mM): 1590 µM
EC50 (ELIC D113A/D158A; Ca^2+ 5 mM): 1810 µM
EC50 (ELIC D113A/D158A; Ca^2+ 10 mM): 2960 µM
EC50 (ELIC D113A/D158A; Ca^2+ 25 mM): 3350 µM
EC50 (ELIC WT; WT/0.25Ca^2+, ACh 0 mM): 640 µM
EC50 (ELIC WT; WT/0.25Ca^2+, ACh 1 mM): 1160 µM
EC50 (ELIC WT; WT/0.25Ca^2+, ACh 5 mM): 3460 µM
EC50 (ELIC WT; WT/0.25Ca^2+, ACh 10 mM): 5080 µM
EC50 (ELIC WT; WT/0.5Ca^2+, ACh 0 mM): 1000 µM
EC50 (ELIC WT; WT/0.5Ca^2+, ACh 1 mM): 1830 µM
EC50 (ELIC WT; WT/0.5Ca^2+, ACh 5 mM): 4030 µM
EC50 (ELIC WT; WT/0.5Ca^2+, ACh 10 mM): 8450 µM
EC50 (ELIC WT; WT/1Ca^2+, ACh 0 mM): 1730 µM
EC50 (ELIC WT; WT/1Ca^2+, ACh 1 mM): 2680 µM
EC50 (ELIC WT; WT/1Ca^2+, ACh 5 mM): 5120 µM
EC50 (ELIC WT; WT/1Ca^2+, ACh 10 mM): 8240 µM
EC50 (ELIC WT; WT/BAPTA, Ca^2+ 0 mM): 360 µM
EC50 (ELIC WT; WT/BAPTA, Ca^2+ 0.25 mM): 840 µM
EC50 (ELIC WT; WT/BAPTA, Ca^2+ 0.5 mM): 1070 µM
EC50 (ELIC WT; WT/BAPTA, Ca^2+ 1.0 mM): 2230 µM
EC50 (ELIC WT; WT, ACh 1 mM): 570 µM
EC50 (ELIC WT; WT, ACh 5.0 mM): 1490 µM
EC50 (ELIC WT; WT, ACh 10.0 mM): 2250 µM
EC50 (ELIC WT; WT, Ba^2+ 1 mM): 760 µM
EC50 (ELIC WT; WT, Ba^2+ 5 mM): 2680 µM
EC50 (ELIC WT; WT, Ba^2+ 10 mM): 5270 µM
EC50 (ELIC WT; WT, Ca^2+ 0 mM): 360 µM
EC50 (ELIC WT; WT, Ca^2+ 0.1 mM): 350 µM
EC50 (ELIC WT; WT, Ca^2+ 0.25 mM): 640 µM
EC50 (ELIC WT; WT, Ca^2+ 0.5 mM): 1000 µM
EC50 (ELIC WT; WT, Ca^2+ 1.0 mM): 1730 µM
EC50 (ELIC WT; WT, Ca^2+ 2.5 mM): 2460 µM
EC50 (ELIC WT; WT, Ca^2+ 5.0 mM): 4370 µM
EC50 (ELIC WT; WT, Mg^2+ 1 mM): 1040 µM
EC50 (ELIC WT; WT, Mg^2+ 5 mM): 3050 µM
EC50 (ELIC WT; WT, Mg^2+ 10 mM): 5310 µM
EC50 (ELIC WT; WT, Sr^2+ 1 mM): 750 µM
EC50 (ELIC WT; WT, Sr^2+ 5 mM): 2110 µM
EC50 (ELIC WT; WT, Sr^2+ 10 mM): 3410 µM
EC50 (ELIC R91A; ACh 1 mM): 400 µM
EC50 (ELIC R91A; ACh 5 mM): 880 µM
EC50 (ELIC R91A; ACh 10 mM): 1780 µM
EC50 (ELIC R91A; Ca^2+ 0 mM): 90 µM
EC50 (ELIC R91A; Ca^2+ 0.5 mM): 240 µM
EC50 (ELIC R91A; Ca^2+ 1 mM): 410 µM
EC50 (ELIC R91A; Ca^2+ 5 mM): 920 µM
EC50 (ELIC R91A; TMA 10 mM): 230 µM
EC50 (ELIC R91A; TMA 25 mM): 330 µM
EC50 (ELIC R91A; TMA 50 mM): 590 µM
EC50 (ELIC D86A; Ca^2+ 0 mM): 570 µM
EC50 (ELIC D86A; Ca^2+ 1 mM): 2300 µM
EC50 (ELIC D86A; Ca^2+ 5 mM): 5310 µM
EC50 (ELIC D86A; Ca^2+ 10 mM): 11200 µM
EC50 (ELIC S84A [1]; Ca^2+ 0 mM): 360 µM
EC50 (ELIC S84A [1]; Ca^2+ 1 mM): 1550 µM
EC50 (ELIC S84A [1]; Ca^2+ 5 mM): 2740 µM
EC50 (ELIC S84A [1]; Ca^2+ 10 mM): 5430 µM
EC50 (ELIC S84A [2]): 5310 µM
EC50 (ELIC N251A; Ca^2+ 0 mM): 290 µM
EC50 (ELIC N251A; Ca^2+ 1 mM): 840 µM
EC50 (ELIC N251A; Ca^2+ 5 mM): 1900 µM
EC50 (ELIC D113A; Ca^2+ 0 mM): 950 µM
EC50 (ELIC D113A; Ca^2+ 1 mM): 880 µM
EC50 (ELIC D113A; Ca^2+ 2.5 mM): 1460 µM
EC50 (ELIC D113A; Ca^2+ 5 mM): 1860 µM
EC50 (ELIC D113A; Ca^2+ 10 mM): 2900 µM
EC50 (ELIC D113A; Ca^2+ 25 mM): 6370 µM
EC50 (ELIC D158A; Ca^2+ 0 mM): 1780 µM
EC50 (ELIC D158A; Ca^2+ 1 mM): 1790 µM
EC50 (ELIC D158A; Ca^2+ 5 mM): 3330 µM
EC50 (ELIC D158A; Ca^2+ 10 mM): 5430 µM
EC50 (ELIC D158A; Ca^2+ 20 mM): 9380 µM
EC50 (ELIC D158N; Ca^2+ 0 mM): 3880 µM
EC50 (ELIC D158N; Ca^2+ 1 mM): 5610 µM
EC50 (ELIC D158N; Ca^2+ 5 mM): 8500 µM
EC50 (ELIC D158N; Ca^2+ 10 mM): 11200 µM
EC50 (ELIC E150Q; Ca^2+ 0 mM): 2920 µM
EC50 (ELIC E150Q; Ca^2+ 1 mM): 5290 µM
EC50 (ELIC E150Q; Ca^2+ 5 mM): 14600 µM
EC50 (ELIC E150Q; Ca^2+ 10 mM): 21900 µM
maximum Popen (ELIC): 98%
